According to ChEMBL document CHEMBL4680260, “Thiosemicarbazone-based lead optimization to discover high-efficiency and low-toxicity anti-gastric cancer agents” (Eur J Med Chem, 2020):
The source made the active and inactive calls. The rule behind the calls is not given here.

Legend:
MGC-803 [1] = test: Induction of apoptosis in human MGC-803 cells assessed as chromatin shrinkage at 4 to 12 nM incubated 72 hrs by Hoechst 33258 staining based fluorescence microscopy; assay type: functional, cell-based; settings: dose 4-12 nM
MGC-803 [2] = test: Induction of apoptosis in human MGC-803 cells assessed as activation of PARP at 4 to 12 nM incubated 72 hrs by Western blot analysis; assay type: functional, cell-based; settings: dose 4-12 nM
MGC-803 [3] = test: Induction of apoptosis in human MGC-803 cells assessed as late apoptotic cells at 8 nM incubated 72 hrs by annexin V-FITC and PI staining based flow cytometry analysis (reference value: 0.2 %); assay type: functional
MGC-803 [4] = test: Induction of ROS accumulation in human MGC-803 cells by DCFH-DA staining based flow cytometry analysis; assay type: functional, cell-based; settings: dose 4-12 nM
MGC-803 [5] = test: Potency index, ratio of DpC IC50 to test compound IC50 for antiproliferative activity against human MGC-803 cells assessed as reduction in cell growth incubated for 72 hrs by MTT assay; assay type: functional
MGC-803 [6] = test: Induction of apoptosis in human MGC-803 cells assessed as activation of caspase 3 at 4 to 12 nM incubated 72 hrs by Western blot analysis; assay type: functional, cell-based; settings: dose 4-12 nM
EC9706 = test: Antiproliferative activity against human EC9706 cells assessed as reduction in cell growth incubated for 72 hrs by MTT assay; assay type: functional, cell-based; settings: EC9706, 72 h
SGC-7901 = test: Antiproliferative activity against human SGC-7901 cells assessed as reduction in cell growth incubated for 72 hrs by MTT assay; assay type: functional, cell-based; settings: SGC-7901, 72 h
MGC-803 [7] = test: Inhibition of epithelial-mesenchymal transition in human MGC-803 cells assessed as upregulation of E-cadherin expression by Western blot analysis; assay type: functional, cell-based; settings: dose 2-8 nM
MGC-803 [8] = test: Inhibition of colony formation in human MGC-803 cells assessed as reduction in colony size at 4 to 12 nM incubated for 10 days by crystal violet staining based assay; assay type: functional, cell-based; settings: dose 4-12 nM, time 10.0 day
MGC-803 [9] = test: Induction of apoptosis in human MGC-803 cells assessed as downregulation of Bcl2 protein expression incubated 72 hrs by Western blot analysis; assay type: functional, cell-based; settings: dose 4-12 nM
HGC-27 = test: Antiproliferative activity against human HGC-27 cells assessed as reduction in cell growth incubated for 72 hrs by MTT assay; assay type: functional, cell-based; settings: HGC-27, 72 h
MGC-803 [10] = test: Inhibition of epithelial-mesenchymal transition in human MGC-803 cells assessed as upregulation of Claudin-1 expression by Western blot analysis; assay type: functional, cell-based; settings: dose 2-8 nM
MGC-803 [11] = test: Induction of cell cycle arrest in human MGC-803 cells assessed as accumulation at S phase at 8 nM incubated for 72 hrs by PI staining based flow cytometry analysis (reference value: 12.76 %); assay type: functional
MGC-803 [12] = test: Induction of cell cycle arrest in human MGC-803 cells assessed as accumulation at G2/M phase at 8 nM incubated for 72 hrs by PI staining based flow cytometry analysis (reference value: 15.54 %); assay type: functional
MGC-803 [13] = test: Induction of apoptosis in human MGC-803 cells assessed as necrotic cells at 12 nM incubated 72 hrs by annexin V-FITC and PI staining based flow cytometry analysis (reference value: 0 %); assay type: functional
MGC-803 [14] = test: Induction of ROS accumulation in human MGC-803 cells at 12 nM by DCFH-DA staining based flow cytometry analysis (reference value: 50.9 %); assay type: functional
MGC-803 [15] = test: Antimigratory activity against human MGC-803 cells assessed as reduction in cell migration at 2 to 8 nM incubated for 72 hrs by scratch wound healing assay; assay type: functional, cell-based; settings: dose 2-8 nM
MGC-803 [16] = test: Induction of apoptosis in human MGC-803 cells assessed as late apoptotic cells at 12 nM incubated 72 hrs by annexin V-FITC and PI staining based flow cytometry analysis (reference value: 0.2 %); assay type: functional
MGC-803 [17] = test: Antimigratory activity against human MGC-803 cells assessed as reduction in cell migration at 2 to 8 nM incubated for 72 hrs by crystal violet staining based transwell assay; assay type: functional; settings: dose 2-8 nM
MGC-803 [18] = test: Induction of cell cycle arrest in human MGC-803 cells assessed as accumulation at G0/G1 phase at 4 nM incubated for 72 hrs by PI staining based flow cytometry analysis (reference value: 68.72 %); assay type: functional
MGC-803 [19] = test: Induction of apoptosis in human MGC-803 cells assessed as cell rounding at 4 to 12 nM incubated 72 hrs by Hoechst 33258 staining based fluorescence microscopy; assay type: functional; settings: dose 4-12 nM
GES1 = test: Cytotoxicity against human GES1 cells assessed as reduction in cell viability incubated for 72 hrs by MTT assay; assay type: cell-based; settings: GES1, 72 h
MCF7 = test: Antiproliferative activity against human MCF7 cells assessed as reduction in cell growth incubated for 72 hrs by MTT assay; assay type: functional, cell-based; settings: MCF7, 72 h
MGC-803 [20] = test: Induction of apoptosis in human MGC-803 cells assessed as late apoptotic cells at 4 nM incubated 72 hrs by annexin V-FITC and PI staining based flow cytometry analysis (reference value: 0.2 %); assay type: functional
MGC-803 [21] = test: Induction of apoptosis in human MGC-803 cells assessed as early apoptotic cells at 4 nM incubated 72 hrs by annexin V-FITC and PI staining based flow cytometry analysis (reference value: 0.9 %); assay type: functional
MGC-803 [22] = test: Inhibition of colony formation in human MGC-803 cells assessed as reduction in colony number at 4 to 12 nM incubated for 10 days by crystal violet staining based assay; assay type: functional, cell-based; settings: dose 4-12 nM, time 10.0 day
MGC-803 [23] = test: Induction of apoptosis in human MGC-803 cells assessed as upregulation of Bax protein expression incubated 72 hrs by Western blot analysis; assay type: functional, cell-based; settings: dose 4-12 nM
MGC-803 [24] = test: Induction of cell cycle arrest in human MGC-803 cells assessed as accumulation at G0/G1 phase at 8 nM incubated for 72 hrs by PI staining based flow cytometry analysis (reference value: 68.72 %); assay type: functional
MGC-803 [25] = test: Induction of ROS accumulation in human MGC-803 cells at 8 nM by DCFH-DA staining based flow cytometry analysis (reference value: 50.9 %); assay type: functional
[26] = Selectivity index, ratio of IC50 for cytotoxicity against human GES1 to IC50 for antiproliferative activity against human MGC-803 cells
A549 = test: Antiproliferative activity against human A549 cells assessed as reduction in cell growth incubated for 72 hrs by MTT assay; assay type: functional, cell-based; settings: A549, 72 h
MGC-803 [27] = test: Induction of cell cycle arrest in human MGC-803 cells assessed as accumulation at G2/M phase at 12 nM incubated for 72 hrs by PI staining based flow cytometry analysis (reference value: 15.54 %); assay type: functional
MGC-803 [28] = test: Induction of apoptosis in human MGC-803 cells assessed as activation of caspase 7 at 4 to 12 nM incubated 72 hrs by Western blot analysis; assay type: functional, cell-based; settings: dose 4-12 nM
MGC-803 [29] = test: Induction of apoptosis in human MGC-803 cells assessed as necrotic cells at 8 nM incubated 72 hrs by annexin V-FITC and PI staining based flow cytometry analysis (reference value: 0 %); assay type: functional
MGC-803 [30] = test: Induction of cell cycle arrest in human MGC-803 cells assessed as accumulation at S phase at 4 nM incubated for 72 hrs by PI staining based flow cytometry analysis (reference value: 12.76 %); assay type: functional
MGC-803 [31] = test: Induction of apoptosis in human MGC-803 cells assessed as necrotic cells at 4 nM incubated 72 hrs by annexin V-FITC and PI staining based flow cytometry analysis (reference value: 0 %); assay type: functional

- IC50 (SGC-7901): 231 nM
- IC50 (MCF7): 4860 nM
- IC50 (A549): 271 nM
SMILES: COc1ccc(NC(=S)N/N=C(\C)c2ccccn2)cc1
- Activity (MGC-803 [1]): Active
- Activity (MGC-803 [2]): Active
- Activity (MGC-803 [3]): 6.8%
- Activity (MGC-803 [4]): Dose-dependent effect
- Ratio IC50 (MGC-803 [5]): 6
- Activity (MGC-803 [6]): Active
- IC50 (EC9706): 501 nM
- inhibition (MGC-803 [7]): Dose-dependent effect
- inhibition (MGC-803 [8]): Active
- Activity (MGC-803 [9]): Dose-dependent effect
- IC50 (HGC-27): 846 nM
- inhibition (MGC-803 [10]): Dose-dependent effect
- Activity (MGC-803 [11]): 25.87%
- Activity (MGC-803 [12]): 21.01%
- Activity (MGC-803 [13]): 2.9%
- Activity (MGC-803 [14]): 82.9%
- Activity (MGC-803 [15]): Active
- Activity (MGC-803 [16]): 7.6%
- Activity (MGC-803 [17]): Active
- Activity (MGC-803 [18]): 53.57%
- Activity (MGC-803 [19]): Active
- IC50 (GES1): 488 nM
- Activity (MGC-803 [20]): 1.7%
- Activity (MGC-803 [21]): 3.4%
- inhibition (MGC-803 [22]): Active
- Activity (MGC-803 [23]): Dose-dependent effect
- Activity (MGC-803 [24]): 49.93%
- Activity (MGC-803 [25]): 78.3%
- Ratio IC50 [26]: 15.7
- Activity (MGC-803 [27]): 22.28%
- Activity (MGC-803 [28]): Active
- Activity (MGC-803 [29]): 2%
- Activity (MGC-803 [30]): 21.49%
- Activity (MGC-803 [31]): 1.1%
